From the supplement of paper PMC10307832 come the findings set out here.

Molecules are shown by their SMILES.

One assay concerns RERF-LC-KJ. Nature of the assay: relative viability (nuclei count vs DMSO), 5 days (fraction); higher = more cells survive. The note with it: first compound 20 µM. Summed up:
(§1)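 Lung cancer cell lines in 1536-well plates were dosed by pin tool the day after seeding, either with one drug alone or with a fixed anchor-drug dose plus five library-drug doses (not always all listed) in √10 steps. After 5 days, cells were fixed and their nuclei stained in one step (final 0.05% Triton X-100, 1% formaldehyde, 1 ug/ml Hoechst), then counted on 4× images. Relative viability is the nuclei count in treated wells divided by that in vehicle wells. Values are medians of duplicate plates.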
Molecule `COCC1(CO)C(=O)C2CCN1CC2` (configuration not stated) [PRIMA-1MET] + O=C(CCCCCCC(=O)Nc1ccccc1)NO [Vorinostat] (partner 1 µM) had a relative viability of 0.659.
Still for that read-out and setting: the figure for `COCC1(CO)C(=O)C2CCN1CC2` (configuration not stated) [PRIMA-1MET] + C[C@]1(O)C[C@@H](c2nc(-c3ccc4ccc(-c5ccccc5)nc4c3)c3c(N)nccn32)C1 [Linsitinib] (partner 1 µM) is 0.875; for `COCC1(CO)C(=O)C2CCN1CC2` (configuration not stated) [PRIMA-1MET] + Cc1cc(Nc2cc(N3CCN(C)CC3)nc(Sc3ccc(NC(=O)C4CC4)cc3)n2)n[nH]1 [Tozasertib] (partner 0.1 µM) it is 0.431.
For the molecule `COCC1(CO)C(=O)C2CCN1CC2` (configuration not stated) [PRIMA-1MET] + Cc1nc(NC(=O)N2CCC[C@H]2C(N)=O)sc1-c1ccnc(C(C)(C)C(F)(F)F)c1 [Alpelisib] (partner 2 µM), the relative viability was 0.75.
Still for that read-out and setting: the figure for `COCC1(CO)C(=O)C2CCN1CC2` (configuration not stated) [PRIMA-1MET] + C[C@@H](Oc1cc(-c2cnn(C3CCNCC3)c2)cnc1N)c1c(Cl)ccc(F)c1Cl [Crizotinib] (partner 1 µM) is 0.847.

For a further assay, the system named is LCLC-103H. The assay is described as above. The note with it: first compound 0.2 µM. The gist of the method:
as §1
As to `COCC1(CO)C(=O)C2CCN1CC2` (configuration not stated) [PRIMA-1MET] + O=C(CCCCCCC(=O)Nc1ccccc1)NO [Vorinostat] (partner 1 µM), the relative viability was 0.76.
As to `COCC1(CO)C(=O)C2CCN1CC2` (configuration not stated) [PRIMA-1MET] + C[C@]1(O)C[C@@H](c2nc(-c3ccc4ccc(-c5ccccc5)nc4c3)c3c(N)nccn32)C1 [Linsitinib] (partner 1 µM), the relative viability amounted to 1.24.
On the same count and under the same terms, the figure for `COCC1(CO)C(=O)C2CCN1CC2` (configuration not stated) [PRIMA-1MET] + Cc1cc(Nc2cc(N3CCN(C)CC3)nc(Sc3ccc(NC(=O)C4CC4)cc3)n2)n[nH]1 [Tozasertib] (partner 0.1 µM) is 0.554.
Same read-out and setting: the figure for `COCC1(CO)C(=O)C2CCN1CC2` (configuration not stated) [PRIMA-1MET] + Cc1nc(NC(=O)N2CCC[C@H]2C(N)=O)sc1-c1ccnc(C(C)(C)C(F)(F)F)c1 [Alpelisib] (partner 2 µM) is 1.1.
Same read-out and setting: the figure for `COCC1(CO)C(=O)C2CCN1CC2` (configuration not stated) [PRIMA-1MET] + C[C@@H](Oc1cc(-c2cnn(C3CCNCC3)c2)cnc1N)c1c(Cl)ccc(F)c1Cl [Crizotinib] (partner 1 µM) is 1.16.

The assay is the same for the next values; noted with them: first compound 0.6325 µM.
For `COCC1(CO)C(=O)C2CCN1CC2` (configuration not stated) [PRIMA-1MET] + O=C(CCCCCCC(=O)Nc1ccccc1)NO [Vorinostat] (partner 1 µM), the relative viability was 0.64.
For `COCC1(CO)C(=O)C2CCN1CC2` (configuration not stated) [PRIMA-1MET] + C[C@]1(O)C[C@@H](c2nc(-c3ccc4ccc(-c5ccccc5)nc4c3)c3c(N)nccn32)C1 [Linsitinib] (partner 1 µM), the relative viability turned out to be 0.956.
In turn, `COCC1(CO)C(=O)C2CCN1CC2` (configuration not stated) [PRIMA-1MET] + Cc1cc(Nc2cc(N3CCN(C)CC3)nc(Sc3ccc(NC(=O)C4CC4)cc3)n2)n[nH]1 [Tozasertib] (partner 0.1 µM) gave a relative viability of 0.453.
The same measure, in the same setting: next, `COCC1(CO)C(=O)C2CCN1CC2` (configuration not stated) [PRIMA-1MET] + Cc1nc(NC(=O)N2CCC[C@H]2C(N)=O)sc1-c1ccnc(C(C)(C)C(F)(F)F)c1 [Alpelisib] (partner 2 µM): 0.966; `COCC1(CO)C(=O)C2CCN1CC2` (configuration not stated) [PRIMA-1MET] + C[C@@H](Oc1cc(-c2cnn(C3CCNCC3)c2)cnc1N)c1c(Cl)ccc(F)c1Cl [Crizotinib] (partner 1 µM): 1.05.

The assay is the same for the next values; noted with them: first compound 2 µM.
In the case of `COCC1(CO)C(=O)C2CCN1CC2` (configuration not stated) [PRIMA-1MET] + O=C(CCCCCCC(=O)Nc1ccccc1)NO [Vorinostat] (partner 1 µM), the relative viability is 0.558.
`COCC1(CO)C(=O)C2CCN1CC2` (configuration not stated) [PRIMA-1MET] + C[C@]1(O)C[C@@H](c2nc(-c3ccc4ccc(-c5ccccc5)nc4c3)c3c(N)nccn32)C1 [Linsitinib] (partner 1 µM) registered a relative viability of 0.905.
In turn, `COCC1(CO)C(=O)C2CCN1CC2` (configuration not stated) [PRIMA-1MET] + Cc1cc(Nc2cc(N3CCN(C)CC3)nc(Sc3ccc(NC(=O)C4CC4)cc3)n2)n[nH]1 [Tozasertib] (partner 0.1 µM) yielded a relative viability of 0.393.
Regarding `COCC1(CO)C(=O)C2CCN1CC2` (configuration not stated) [PRIMA-1MET] + Cc1nc(NC(=O)N2CCC[C@H]2C(N)=O)sc1-c1ccnc(C(C)(C)C(F)(F)F)c1 [Alpelisib] (partner 2 µM), the relative viability stood at 0.793.
In turn, `COCC1(CO)C(=O)C2CCN1CC2` (configuration not stated) [PRIMA-1MET] + C[C@@H](Oc1cc(-c2cnn(C3CCNCC3)c2)cnc1N)c1c(Cl)ccc(F)c1Cl [Crizotinib] (partner 1 µM) registered a relative viability of 0.894.

The same assay, now with this note: first compound 6.325 µM.
`COCC1(CO)C(=O)C2CCN1CC2` (configuration not stated) [PRIMA-1MET] + O=C(CCCCCCC(=O)Nc1ccccc1)NO [Vorinostat] (partner 1 µM) gave a relative viability of 0.771.
As for `COCC1(CO)C(=O)C2CCN1CC2` (configuration not stated) [PRIMA-1MET] + C[C@]1(O)C[C@@H](c2nc(-c3ccc4ccc(-c5ccccc5)nc4c3)c3c(N)nccn32)C1 [Linsitinib] (partner 1 µM), the relative viability was found to be 1.12.
As for `COCC1(CO)C(=O)C2CCN1CC2` (configuration not stated) [PRIMA-1MET] + Cc1cc(Nc2cc(N3CCN(C)CC3)nc(Sc3ccc(NC(=O)C4CC4)cc3)n2)n[nH]1 [Tozasertib] (partner 0.1 µM), the relative viability came out at 0.419.
As for `COCC1(CO)C(=O)C2CCN1CC2` (configuration not stated) [PRIMA-1MET] + Cc1nc(NC(=O)N2CCC[C@H]2C(N)=O)sc1-c1ccnc(C(C)(C)C(F)(F)F)c1 [Alpelisib] (partner 2 µM), the relative viability worked out at 1.09.
As for `COCC1(CO)C(=O)C2CCN1CC2` (configuration not stated) [PRIMA-1MET] + C[C@@H](Oc1cc(-c2cnn(C3CCNCC3)c2)cnc1N)c1c(Cl)ccc(F)c1Cl [Crizotinib] (partner 1 µM), the relative viability amounted to 1.11.

The same assay, now with this note: first compound 20 µM.
Take `COCC1(CO)C(=O)C2CCN1CC2` (configuration not stated) [PRIMA-1MET] + O=C(CCCCCCC(=O)Nc1ccccc1)NO [Vorinostat] (partner 1 µM): the relative viability is 0.793.
On the same count and under the same terms, next, `COCC1(CO)C(=O)C2CCN1CC2` (configuration not stated) [PRIMA-1MET] + C[C@]1(O)C[C@@H](c2nc(-c3ccc4ccc(-c5ccccc5)nc4c3)c3c(N)nccn32)C1 [Linsitinib] (partner 1 µM): 1.1; `COCC1(CO)C(=O)C2CCN1CC2` (configuration not stated) [PRIMA-1MET] + Cc1cc(Nc2cc(N3CCN(C)CC3)nc(Sc3ccc(NC(=O)C4CC4)cc3)n2)n[nH]1 [Tozasertib] (partner 0.1 µM): 0.161.
Same read-out and setting: the figure for `COCC1(CO)C(=O)C2CCN1CC2` (configuration not stated) [PRIMA-1MET] + Cc1nc(NC(=O)N2CCC[C@H]2C(N)=O)sc1-c1ccnc(C(C)(C)C(F)(F)F)c1 [Alpelisib] (partner 2 µM) is 0.935; for `COCC1(CO)C(=O)C2CCN1CC2` (configuration not stated) [PRIMA-1MET] + C[C@@H](Oc1cc(-c2cnn(C3CCNCC3)c2)cnc1N)c1c(Cl)ccc(F)c1Cl [Crizotinib] (partner 1 µM) it is 1.06.

A further assay has as its system NCI-H1792. The assay is described as above. To be noted: first compound 0.2 µM. The gist of the method:
as §1
Turning to `COCC1(CO)C(=O)C2CCN1CC2` (configuration not stated) [PRIMA-1MET] + C[C@]1(O)C[C@@H](c2nc(-c3ccc4ccc(-c5ccccc5)nc4c3)c3c(N)nccn32)C1 [Linsitinib] (partner 1 µM), the relative viability turned out to be 0.521.
On the same count and under the same terms, the figure for `COCC1(CO)C(=O)C2CCN1CC2` (configuration not stated) [PRIMA-1MET] + Cc1nc(NC(=O)N2CCC[C@H]2C(N)=O)sc1-c1ccnc(C(C)(C)C(F)(F)F)c1 [Alpelisib] (partner 2 µM) is 0.708.
